# Measurements from US8063054B2, “Method of treatment of retinal ischemia with diazoxide” (Centre National de la Recherche Scientifique-CNRS, priority 2003, dated 2011).
# Tests used:
# [1] = test system: Brown Norway rats; test: Histological analysis of the cytoarchitecture of the retina after retinal ischemia; type: in vivo, rat; settings: 7 days after the end of the ischemia; treated 30 min or 24 hours after ischemia, compared to non-treated ischemia group
# Procedure: Brown Norway rats from the scientific stock farm IFFA CREDO with a weight between 200 and 250 g were received and placed into individual cages in an air-conditioned room (temperature between 18 and 20° C.) with a light/dark cycle (12 h/12 h). During the study the animals had free access to food and water.
# Diazoxide was dissolved in a pure solution of dimethyl sulfoxide (DMSO). The solution obtained in this manner was diluted in sterile physiological serum to obtain a final ophthalmic solution at 0.01% active principle and 0.4% DMSO.
# The local administration was performed by instillation of 10 μl of the ophthalmic solution in the conjunctival cul-de-sac of the right eye 30 minutes after the end of the ischemia for the 1st group and 24 hours after the start of the reperfusion for the second group, then each day for 4 hours.
# After general anesthesia of the rats by intraperitoneal injection of sodium pentobarbital (60 mg/kg) the pupil was dilated by instillation of a drop of Mydriaticum®. The anterior chamber of the right eye, previously anesthetized by instillation of a drop of oxybuprocaine, was cannulated with a 30G needle connected to a reservoir containing a Hank's balanced salt solution. […] Ischemia was characterized by the disappearance of the blood flow in the retinal vessels, determined by direct opthalmoscopy of the ocular fundus. […]
# [2] = test system: Brown Norway rats; test: Electroretinography (A and B wave amplitude) after retinal ischemia induced by elevation of the intraocular pressure; type: in vivo, rat
# Procedure: Brown Norway rats from the scientific stock farm IFFA CREDO with a weight between 200 and 250 g were received and placed into individual cages in an air-conditioned room (temperature between 18 and 20° C.) with a light/dark cycle (12 h/12 h). During the study the animals had free access to food and water. Diazoxide was dissolved in a pure solution of dimethyl sulfoxide (DMSO). The solution obtained in this manner was diluted in sterile physiological serum to obtain a final ophthalmic solution at 0.01% active principle and 0.4% DMSO. The local administration was performed by instillation of 10 μl of the ophthalmic solution in the conjunctival cul-de-sac of the right eye 30 minutes after the end of the ischemia for the 1st group and 24 hours after the start of the reperfusion for the second group, […] After general anesthesia of the rats by intraperitoneal injection of sodium pentobarbital (60 mg/kg) the pupil was dilated by instillation of a drop of Mydriaticum®. The anterior chamber of the right eye, previously anesthetized by instillation of a drop of oxybuprocaine, was cannulated with a 30G needle connected to a reservoir containing a Hank's balanced salt solution. The retinal ischemia, lasting 40 min, was induced by elevation of the reservoir containing the saline solution to a height of 185 cm, permitting an intraocular pressure to 130 mm Hg to be produced. Ischemia was characterized by the disappearance of the blood flow in the retinal vessels, determined by direct opthalmoscopy of the ocular fundus. The rats were sacrificed after a period of reperfusion of 7 days. All the rats that developed a cataract or a hemorrhage were separated from the study. The electroretinography is performed under general anesthesia of the rats after dilation of the pupil by instillation of a drop of Mydriaticum®. The animal is previously adapted for 12 hours to darkness, then installed on its flank in a Faraday cage. The measuring electrode, constituted by a silver chloride ring (Ag/AgCl) is placed on the cornea of the right eye. The reference electrode constituted by a silver chloride needle is inserted in the ear of the animal. All these operations are performed under red light. The luminous stimuli are produced by a stroboscope placed at 25 cm from the eye in the visual axis. The flash of white light lasting 10 μs and with an intensity of 2.5·10^3 cd·s·m^−2 permits a maximal response of the retina. The recovery of the electrical signal, its amplification, transmission and display on a microcomputer are managed by a compact system. An integrated software permits the acquisition of the data as well as the determination of the amplitudes and of the latency times of the different waves of the electroretinogram (ERG). The ERG in the rat is composed of two waves; a corneo-negative wave or A wave reflecting the activity of the photoreceptors followed by a wave of positive polarity or B wave reflecting the activity of the Müller cells. The ERG's are recorded for all the groups at time t=0 before induction of ischemia, then at times 1, 2, 3 and 7 days after the start of the reperfusion. The pre-ischemic amplitudes of the A and B waves of the ERG are very variable from one group to the other, but also within one and the same group. Recovery is expressed by percentage of the initial value and the difference of effectiveness between each treatment is analyzed with the aid of the U test of Mann Whitney. The significance threshold is 0.02.
# [3] = diazoxide 0.01% instilled 30 minutes after the start of the reperfusion and every day for 4 days, 3 days after the start of the reperfusion, ± standard deviation, n=7
# [4] = diazoxide 0.01% instilled 30 minutes after the start of the reperfusion and every day for 4 days, 7 days after the end of the ischemia
# [5] = diazoxide applied 24 hours after the start of the reperfusion, time 3 days
# [6] = diazoxide applied 24 hours after the start of the reperfusion, time 7 days
smiles,measurement,setting,value
"CC1=Nc2ccc(Cl)cc2S(=O)(=O)N1 [diazoxide, 7-chloro-3-methyl-2H-1,2,4-benzothiadiazine-1,1-dioxide]",preservation of the layers of the ganglionic cells and the photoreceptor cells (FIGS. 3C and 3D),[1],better presservation
same,thickness of the internal plexiform and nuclear layers of the retina (FIGS. 3C and 3D),[1],less severe reduction
same,"reduction of the electrical activity of the retina (ERG profiles, FIG. 1C-1D)","[2]; 7 days after the end of the ischemia, groups treated 30 min or 24 hours after ischemia, compared to non-treated ischemia group",much less drastic
same,"amplitude of wave A of the electroretinogram, recovery in % of the initial values",[2]; [3],97.01±13%
same,"amplitude of wave B of the electroretinogram, recovery in % of the initial values",[2]; [3],96.36±11%
same,"amplitude of wave A of the electroretinogram, recovery in % of the initial values",[2]; [4],88.10±14%
same,"amplitude of wave B of the electroretinogram, recovery in % of the initial values",[2]; [4],75±14%
same,"amplitude of wave A of the electroretinogram, recovery in % of the initial values",[2]; [5],84.26±10%
same,"amplitude of wave B of the electroretinogram, recovery in % of the initial values",[2]; [5],88.17±14%
same,"amplitude of wave A of the electroretinogram, recovery in % of the initial values",[2]; [6],87.59±16%
same,"amplitude of wave B of the electroretinogram, recovery in % of the initial values",[2]; [6],70.59±16%
same,"effect on the recovery of the retinal function (statistical analysis, Mann Whitney U test)","[2]; instilled 30 min or 24 hours after the end of the ischemia, compared to the non-treated group caused to have ischemia",highly significant effect
